US8202998B2, “Salts of benzimidazolyl pyridyl ethers and formulations thereof” (Novartis AG, priority 2006, dated 2012)
Converted amounts (≈) assume the structure as drawn.

Assays:
[1] = pH of 1% solution or suspension; assay type: physicochemical; settings: In water
[2] = Thermogravimetry / loss on drying; assay type: physicochemical
[3] = Polymorphism behavior: crystal modification after 24 hours equilibration; assay type: physicochemical
Method: A suspension of 6 mg of drug substance in 300 μl of solvent is prepared. Samples are agitated for ≧24 hour at 22° C.±2° C. The solids are collected and investigated for changes.

[4] = Aqueous solubility of salts in deionized water
[5] = Determination of solubility at 25° C.; assay type: physicochemical; settings: for solubility: thermodynamic from solid
Method: Excess solids were equilibrated in each solvent for over 24 hours at 25° C.±0.1. Concentration in aqueous supernatant was measured by UV and HPLC and concentrations in organic solvents by gravimetry.

[6] = Bioavailability study of API and salts of API in dogs; assay type: in vivo, beagle dogs; settings: single 100 mg oral dose
Method: For comparison, a microemulsion of the free base was also studied. The study was performed with 4 dogs, weighing 9-15 kg each. A crossover design with a washout period of at least 1 week was used. The dogs were given a single oral dose of 100 mg of test compound, administered under fasting conditions.

[7] = Stability: degradation products (DP) and appearance (color) under stress conditions; assay type: physicochemical; design: key to CL: A: No change of color; B: Slight discoloration; C: Medium discoloration; D: Strong discoloration; ↓: Suspension; *: Clear solution after stress test; —: no change; x: test not performed
Method: Column: Symmetry C18 (Waters), 3.5 μm, 3×150 mm
Mobile phase: A=0.1% TFA in water; B=acetonitrile
Gradient: 20 to 100% B in 10 minutes
Column temperature: 40° C.
Stability of the three salts with respect to color and degradation products were assessed under various conditions.

[8] = Hygroscopicity (sorption/desorption); assay type: physicochemical
Method: Sorption/desorption isotherms were measured using VTI vapor sorption device (DVS-1). Measurements were carried out at 25° C.

[9] = Intrinsic dissolution rate; assay type: physicochemical; settings: 37° C.
Method: The intrinsic dissolution rate measurements were carried out in 0.5 cm^2 VanKel die assemblies and a pellet pressure of 1 ton. The dissolution was measured using a Cary 50 spectrophotometer with a stirring rate of 200 rpm. The solution medium was held at 37° C. and measurements were made at 276 nm.

[10] = Aqueous solubility of API as a function of pH (shake flask method); assay type: physicochemical; settings: for solubility at 5 days: aqueous HCl or NaOH solution, ionic strength 0.15 (KCl), thermodynamic from solid, room temperature
Method: The aqueous solubility of the compound of Formula I was assessed as a function of pH. Solubility of the compound of Formula I was determined using the shake flask method. The following aqueous solutions of hydrochloric acid (HCl) were prepared: 100, 33.3, 11.1, 3.7, 1.2, 0.4, and 0 mM. The following aqueous solutions of sodium hydroxide (NaOH) were prepared: 1.2 and 0.4 mM. The ionic strength of each of these solutions was adjusted to 0.15 using potassium chloride. Excess amounts of the compound of Formula I were added to a 1 mL aliquot of each of the above solutions in 1.5-mL polypropylene tubes. The tubes were agitated at room temperature for 5 days before analysis. On the day of analysis, the tubes were centrifuged at 15,000 revolutions per minute (rpm) using a microcentrifuge at 22° C. for 20 minutes. The concentration of compound of Formula I in the supernatant was measured by HPLC. The pH of the supernatant was measured using an Orion pH meter, which was calibrated before use.

[11] = Apparent pKa by pH profile solubility study; assay type: physicochemical; settings: determined by a pH profile solubility study
From the text: The apparent pKa of the compound of Formula I refers to the apparent ionization constant of the compound of Formula I as determined by a pH profile solubility study. Thus, the apparent pKa of the compound of Formula I is a complex term consisting of three overlapping ionization constants of the basic nitrogens in Formula I.

[12] = Effect of grinding on morphic properties; assay type: physicochemical
[13] = deionized water, water, thermodynamic from solid
[14] = beagle, dog, plasma, fasting, mean and sd
[15] = 0.1% solutions or suspensions, 1 week 80° C. or 50° C., Methanol
[16] = 0.1% solutions or suspensions, 1 week 80° C. or 50° C., Water
[17] = 0.1% solutions or suspensions, 1 week 80° C. or 50° C., pH 1
[18] = 0.1% solutions or suspensions, 1 week 80° C. or 50° C., pH 3
[19] = 0.1% solutions or suspensions, 1 week 80° C. or 50° C., pH 5
[20] = 0.1% solutions or suspensions, 1 week 80° C. or 50° C., pH 7
[21] = 0.1% solutions or suspensions, 1 week 80° C. or 50° C., pH 9
[22] = 0.1% solutions or suspensions, 1 week 80° C. or 50° C., pH 11
[23] = 1-2 weeks 50° C., tight container, 1% in mixture 1
[24] = 1-2 weeks 50° C., tight container, 1% in mixture 2
[25] = 1-2 weeks 50° C./75% r.h., 1% in mixture 1
[26] = 1-2 weeks 50° C./75% r.h., 1% in mixture 2
[27] = Solid stage, 1 week 80° C., tight container, Bulk (HPLC)
[28] = Xenon light (approx. 1200 kLuxh), Bulk (HPLC)

Q: Which “pH of 1% solution or suspension” value [1] does the source give for `Cn1c(Nc2ccc(C(F)(F)F)cc2)nc2cc(Oc3ccnc(-c4ncc(C(F)(F)F)[nH]4)c3)ccc21` [API, {1-methyl-5-[2-(5-trifluoromethyl-1H-imidazol-2-yl)-pyridin-4-yloxy]-1H-benzoimidazol-2-yl}-(4-trifluoromethyl-phenyl)amine] here?
A: The value was 5.5.

Q: What about the “Loss on drying by TG” value ([2]; As is) of the same compound?
A: The value was 3.3%.

Q: What about the “Thermogravimetry (weight loss in %)” value ([2]; Heating rate 20 K/min) of the same compound?
A: Its value is 3.3%.

Q: What about the “Crystal modification after 24 hours equilibration (DSC/XRPD/TG)” value (shortened to “Crystal modification … (DSC/XRPD/TG)”) ([3]; 2-propanol) of the same compound?
A: Its value is “No change”.

Q: And the “Crystal modification … (DSC/XRPD/TG)” value ([3]; Acetone)?
A: The value was “No change”.

Q: What about the “Crystal modification … (DSC/XRPD/TG)” value ([3]; Acetonitrile) of the same compound?
A: The value was “Change”.

Q: What about the “Crystal modification … (DSC/XRPD/TG)” value ([3]; Ethanol) of the same compound?
A: Its value is “No change”.

Q: What about the “Crystal modification … (DSC/XRPD/TG)” value ([3]; Ethyl acetate) of the same compound?
A: Its value is “No change”.

Q: What about the “Crystal modification … (DSC/XRPD/TG)” value ([3]; Methanol) of the same compound?
A: Its value is “No change”.

Q: What about the “Crystal modification … (DSC/XRPD/TG)” value ([3]; PEG400) of the same compound?
A: Its value is “No change”.

Q: What about the “Crystal modification … (DSC/XRPD/TG)” value ([3]; Water) of the same compound?
A: The value was “Change”.

Q: And the solubility [4, 13]?
A: Its solubility is 9 µg/mL.

Q: What about the solubility at 48 h [4, 13] of the same compound?
A: The solubility at 48 h was 4 µg/mL.

Q: And the pH ([4]; pH of the saturated aqueous solutions)?
A: Its pH is 5.235.

Q: And the solubility ([5]; 0.1N HCl, 25 °C, simulated gastric fluid, read-out: Solubility (approx. at 25° C.) (HPLC))?
A: Its solubility is 200 µg/mL (≈ 386 µM).

Q: And the solubility ([5]; acetonitrile, 25 °C, organic solvent or mixture, read-out: Solubility (approx. at 25° C.))?
A: Its solubility is 5200 µg/mL (≈ 10000 µM).

Q: And the solubility ([5]; aqueous medium at pH 3, 25 °C, pH 3, aqueous buffer, read-out: Solubility (approx. at 25° C.) (HPLC))?
A: The solubility was 0.06 µg/mL (≈ 0.116 µM).

Q: What about the solubility ([5]; aqueous medium at pH 4.5, 25 °C, pH 4.5, aqueous buffer, read-out: Solubility (approx. at 25° C.) (HPLC)) of the same compound?
A: The solubility was 0.09 µg/mL (≈ 0.174 µM).

Q: What about the Solid ([5]; line after Water under Solubility) of the same compound?
A: Its Solid is “No change”.

Q: And the solubility ([5]; methanol, 25 °C, organic solvent or mixture, read-out: Solubility (approx. at 25° C.))?
A: The solubility was 11400 µg/mL (≈ 22000 µM).

Q: And the “Aqueous solubility (in words)” value ([5]; summary of Table 8)?
A: The value was “nearly insoluble in water”.

Q: What about the solubility ([5]; water, 25 °C, water, read-out: Solubility (approx. at 25° C.) (HPLC)) of the same compound?
A: Its solubility is 24 µg/mL (≈ 46.3 µM).

Q: And the AUC(0-inf) [6, 14]?
A: The AUC(0-inf) was 5310 ± 4510 ng·h/mL.

Q: What about the Cmax [6, 14] of the same compound?
A: Its Cmax is 62.9 ± 74.4 ng/mL.

Q: What about the Tmax ([6]; beagle, dog, plasma, fasting, median) of the same compound?
A: Its Tmax is 16 h.

Q: And the Tlag ([6]; fasting, median)?
A: Its Tlag is 1.0 h.

Q: And the “Absolute F” value ([6]; relative to an iv dose of 1.25 mg/kg)?
A: Its value is 2.32 ± 1.97.

Q: And the CL [7, 15]?
A: The CL was “A”.

Q: And the DP [7, 15]?
A: Its DP is 0.6%.

Q: And the CL [7, 16]?
A: The CL was “A↓”.

Q: And the DP [7, 16]?
A: The DP was 0.6%.

Q: What about the CL [7, 17] of the same compound?
A: The CL was “A”.

Q: What about the DP [7, 17] of the same compound?
A: The DP was 1.4%.

Q: And the CL [7, 18]?
A: The CL was “A↓”.

Q: What about the DP [7, 18] of the same compound?
A: Its DP is 0.9%.

Q: What about the CL [7, 19] of the same compound?
A: The CL was “A↓”.

Q: What about the DP [7, 19] of the same compound?
A: Its DP is 0.6%.

Q: And the CL [7, 20]?
A: Its CL is “A↓”.

Q: What about the DP [7, 20] of the same compound?
A: The DP was 0.9%.

Q: And the CL [7, 21]?
A: The CL was “A↓”.

Q: What about the DP [7, 21] of the same compound?
A: Its DP is 27.0%.

Q: And the CL [7, 22]?
A: The CL was “A↓”.

Q: And the DP [7, 22]?
A: Its DP is greater than 99%.

Q: And the CL [7, 23]?
A: The CL was “A”.

Q: What about the DP [7, 23] of the same compound?
A: The DP was 0.7%.

Q: What about the CL [7, 24] of the same compound?
A: Its CL is “A”.

Q: What about the DP [7, 24] of the same compound?
A: Its DP is 0.6%.

Q: And the CL [7, 25]?
A: The CL was “A”.

Q: What about the DP [7, 25] of the same compound?
A: The DP was 0.8%.

Q: And the CL [7, 26]?
A: Its CL is “A”.

Q: And the DP [7, 26]?
A: The DP was 0.5%.

Q: And the “Stability in methanol (in words)” value ([7]; In methanol)?
A: The value was “stable”.

Q: What about the CL [7, 27] of the same compound?
A: Its CL is “A”.

Q: What about the DP [7, 27] of the same compound?
A: The DP was 0.6%.

Q: What about the DP ([7]; Solid state, 1 week 80° C./175% r.h, Bulk (HPLC)) of the same compound?
A: The DP was 0.6%.

Q: And the CL ([7]; Solid state, 1 week 80° C./, Bulk (HPLC))?
A: Its CL is “A”.

Q: And the DP ([7]; Unstressed)?
A: The DP was 0.6%.

Q: What about the CL [7, 28] of the same compound?
A: Its CL is “A”.

Q: And the DP [7, 28]?
A: Its DP is 0.6%.

Q: What about the “optimum pH for aqueous stability” value ([7]; aqueous) of the same compound?
A: Its value is 5.

Q: And the “Aqueous stability at higher pH (in words)” value ([7]; higher pH (9 and 11))?
A: Its value is “decomposes”.

Q: And the “Hygroscopicity from moisture sorption profiles (in words)” value [8]?
A: Its value is “non-hygroscopic”.

Q: And the “Hygroscopicity: After 1 day at 80% r.h.” value ([8]; 80% r.h., 1 day, 25° C.)?
A: The value was 0.

Q: And the “Hygroscopicity: After 1 day at 95% r.h.” value ([8]; 95% r.h., 1 day, 25° C.)?
A: Its value is 0.1.

Q: What about the Intrinsic dissolution rate ([9]; HCl 0.1N) of the same compound?
A: Its Intrinsic dissolution rate is 0 mg min^−1 cm^−2.

Q: What about the Intrinsic dissolution rate ([9]; Water) of the same compound?
A: The Intrinsic dissolution rate was 0 mg min^−1 cm^−2.

Q: And the “Aqueous solubility (in words)” value ([10]; Water)?
A: Its value is “practically insoluble in water”.

Q: What about the solubility at 5 days ([10]; aqueous buffer, pH 2.19) of the same compound?
A: Its solubility at 5 days is 125 µg/mL (≈ 242 µM).

Q: What about the solubility at 5 days ([10]; aqueous buffer, pH 3.75) of the same compound?
A: The solubility at 5 days was 1.9 µg/mL (≈ 3.66 µM).

Q: What about the solubility at 5 days ([10]; aqueous buffer, pH 5.78) of the same compound?
A: The solubility at 5 days was 0.4 µg/mL (≈ 0.772 µM).

Q: And the solubility at 5 days ([10]; aqueous buffer, pH 10.13)?
A: The solubility at 5 days was 0.3 µg/mL (≈ 0.579 µM).

Q: And the solubility at 5 days ([10]; aqueous buffer, pH 11.00)?
A: Its solubility at 5 days is 0.3 µg/mL (≈ 0.579 µM).

Q: What about the solubility at 5 days ([10]; simulated gastric fluid, pH 1.36) of the same compound?
A: Its solubility at 5 days is 709 µg/mL (≈ 1370 µM).

Q: What about the pKa [11] of the same compound?
A: Its pKa is roughly 4.7.

Q: And the Effect of grinding [12]?
A: Its Effect of grinding is “No change”.
